Experimental data: patent US20110071124A1, “Compounds that Inhibit Production of sAPPB and AB and Uses Thereof” (The Trustees of Columbia University in the City of New York, priority 2008, published 2011)
Like-named read-outs stand apart in the source and are kept apart here.

How the values were obtained:
[1] = tested on: sAPPβ (BACE1 cleavage of SEAP-APPwt) in SY5Y-BACEGFP-SEAPAPPwt cells; experiment: cell-based BACE1 assay (sAPPβ modified ELISA)
Protocol: FIG. 1. An sAPPβ assay utilized to identify inhibitors of BACE1. The assay utilizes SY5Y cells stably overexpressing BACE-GFP and SEAP-APPwt. Cells are incubated with a candidate compound for 6 hours prior to harvesting media. BACE1-mediated cleavage of APP results in the release of sAPPβ into the media. α-secretase, a competing enzyme that is non-amyloidogenic, also cleaves APP to release […]. Using an sAPPβ-specific antibody (sβwt), SEAP-sAPPβ is specifically captured in a modified ELISA assay. Detection is achieved by addition of the fluorescent alkaline phosphatase substrate, 4-methylumbelliferyl phosphate (4-MUP).
(§1) FIG. 13. […] Compounds were tested in SY5Y-BACEGFP-SEAPAPPwt cells using the cell-based BACE1 assay. Select compounds were also investigated for Aβ-lowering effect using a commercial Aβ ELISA kit (BioSource). All compounds were tested at 8 concentrations (30, 10, 3, 1, 0.3, 0.1, 0.03, and 0.01 μM), and data points were analyzed with Origin software and fitted using a logistic model for IC50 determination.
As described in the Examples below, and depicted in FIG. 1, an sAPPβ ELISA assay may comprise cells, for example, SY5Y cells, transfected with a BACE1 reporter construct, such as a GFP-tagged BACE1 (BACE-GFP), and a wild type APP reporter construct, such as a secreted alkaline phosphatase (SEAP)-tagged wild type APP (SEAP-APPwt). BACE1 cleavage of the reporter-tagged APP (e.g. SEAP-APPwt) may result in secretion into the media of SEAP-tagged sAPPβ, which may be collected and specifically captured using an sAPPβ cleavage site-specific antibody (e.g. stβwt). Following washing, a substrate may be used, for example, the fluorescent alkaline phosphatase substrate 4-methylumbelliferyl phosphate (4-MUP), to detect the captured SEAP-sAPPβ.
A cell-based modified ELISA assay for measuring sAPPβ, the secreted ectodomain of β-amyloid precursor protein (APP) following β-secretase (BACE1) cleavage, was used to identify a class of compounds that interfered with the first step of sAPPβ generation. This assay has been described in International Application PCT/US2007/015938 (Published as International Publication No. WO 08/008463), which is herein incorporated in its entirety for all purposes.
The SY5Y-BACEGFP-SEAPAPPwt cell based assay was developed to discover novel small molecule modulators of BACE1 activity. SY5Y cells were stably transfected with GFP-tagged BACE1 (BACE-GFP) and secreted alkaline phosphatase (SEAP)-tagged wildtype APP (SEAP-APPwt). BACE1 cleavage of SEAP-APPwt results in secretion into the media of SEAP-tagged sAPPβ, which is collected and specifically captured using an sAPP0 cleavage site-specific antibody (sβwt). After washing, the fluorescent alkaline phosphatase substrate 4-methylumbelliferyl phosphate (4-MUP) is used to detect the captured SEAP-sAPPβ (FIG. 1).
The 15 LDDN compounds selected based on their 3-point dose-response profile were tested at 12 concentrations (ranging from 0.1 nM to 30 μM) in the cell-based BACE1 assay. The assay was conducted in 96-well format to maximize the Z′ factor. Compounds were characterized in duplicate cell plates, each containing 12 doses of compound in triplicate. Cell viability was measured at 6 and 24 hours using Promega's Cell Titer-Glo kit according to the manufacturer's protocol. The dose-response curves for sAPPβ reduction were plotted using Origin software and fitted using a logistic model for IC50 determination.
(§2) 27 structural analogs of LDN-0057228 were synthesized and tested using the cell-based BACE1 assay in SY5Y-BACEGFP-SEAPAPPwt cells (FIG. 13). 4 analogs, in addition to the parent compound, were also assessed for Aβ40 lowering activity using a commercial Aβ kit (BioSource). Because LDN-0057228 resembles CNS monoamine transporter inhibitors, this analog series was given the designation “CNS.” LDN-0057228 gave an unexpectedly low potency (IC50˜20 μM for both sAPPβ and Aβ40 reduction) compared to the ˜7 μM potency obtained using the same compound in FIG. 8.

[2] = biological target: T1, purified recombinant β-secretase (BACE1) (Homo sapiens, UniProt P56817); experiment: BACE1 FRET enzymatic assay (Invitrogen); format: biochemical; details: for dose-dependent inhibition of β-secretase: 3 concentrations (0.1, 1, and 10 μM); for IC50: 12 doses, read-out: enzymatic IC50 (FRET-based BACE1 assay)
T1 construct: purchased Invitrogen
From the text: FIG. 10. 4 compounds reduce BACE1 activity in an enzymatic assay. To further classify the small molecule hits, a FRET-based BACE1 enzymatic assay (Invitrogen) was used to identify potential direct BACE1 inhibitors.
In other non-limiting embodiments, the effective amount of at least one compound of Formulas I-VII, and/or a compound depicted in FIG. 19, may be correlated with the compound's ability to inhibit the enzymatic activity of a BACE1 enzyme. The compound's BACE1 inhibitory effect may be assayed, for example, through use of a BACE1 FRET Assay kit (Invitrogen Corp., Carlsbad, Calif., U.S.A.), wherein the fluorescence resonance energy transfer (FRET)-based assay measures the cleavage by purified recombinant β-secretase of a peptide substrate corresponding to the BACE1 cleavage site of Swedish mutant APP. In such an assay, a greater reduction in fluorescence in the reaction mixture following incubation with a compound of the invention compared to a control cell line not contacted with the compound is correlative with the compound's therapeutic efficacy.
Because the cell-based BACE1 assay has the potential to uncover direct as well as indirect inhibitors of β-secretase, a commercial BACE1 enzymatic assay was employed to classify the small molecule hits. The BACE1 FRET Assay kit was purchased from Invitrogen and used according to the manufacturer's protocol. This fluorescence resonance energy transfer (FRET)-based assay measures the cleavage by purified recombinant β-secretase of a peptide substrate corresponding to the BACE1 cleavage site of Swedish mutant APP. The 15 LDDN hits were first tested at 3 concentrations (0.1, 1, and 10 μM) to determine if there is a dose-dependent inhibition of β-secretase.

[3] = fluorescent readout interference: BACE1 substrate standard (cleaved peptide) without BACE1 enzyme; details: highest of 12 concentrations
Protocol: Because the enzymatic assay is performed with compound in the reaction mixture (in contrast to the cell-based BACE1 assay, where the compound is washed away after antibody-mediated specific capture of sAPPβ), it is conceivable that the compound itself may interfere with the fluorescent readout of the enzymatic BACE1 assay. To explore this possibility, BACE1 substrate standard (cleaved peptide, supplied in the assay kit) was incubated with 12 concentrations of LDN-0040630, LDN-0089308, LDN-0096529, and LDN-0091841 in the absence of BACE1 enzyme.

[4] = tested on: Aβ40 in SY5Y-BACEGFP-SEAPAPPwt cells; experiment: Aβ40 ELISA (BioSource) in SY5Y-BACEGFP-SEAPAPPwt cells; format: cell-based; details: for IC50: SAR study, 8 concentrations (30-0.01 μM), SY5Y-BACEGFP-SEAPAPPwt cells
Protocol: FIG. 11. 5 LDDN compounds reduce Aβ40 in SYSY-BACEGFP-SEAPAPPwt cells. sAPPβ and 24-hour cell viability was performed as described in Chapter 4.1. Aβ40 ELISA was performed using the Aβ40 ELISA kit (BioSource) according to the manufacturer's protocol. Cell culture media was collected after 6 hours of treatment with 4 concentrations (30, 10, 3, 0.3 μM) of compound and diluted 3:10 prior to loading onto the Aβ ELISA plate. The data points for sAPPβ and Aβ were roughly superimposed. Data points represent mean±s.d. of 3 determinations.
as §1
In other non-limiting embodiments, the effective amount of at least one compound of Formulas I-VII, and/or a compound depicted in FIG. 19, may be correlated with the compound's ability to reduce the level of Aβ40 in an in vitro assay that measures the level of Aβ40 produced in a cell line, for example, an SY5Y-BACEGFP-SEAPAPPwt cell line. In one non-limiting example, the level of Aβ40 expressed by the cell line may be measured through the use of an Aβ40 Elisa kit (Bio Source). In one embodiment, the assay comprises incubating the Aβ40 expressing cells with a compound of Formulas I-VII, and/or a compound depicted in FIG. 19, followed by assaying the concentration of Aβ40 in the cell media. In such an assay, a greater reduction of Aβ40 concentration in the cell media following incubation with a compound compared to a control cell line not contacted with the compound is correlative with the compound's therapeutic efficacy.
The 15 LDDN compounds were tested in SY5Y-BACEGFP-SEAPAPPwt cells for their ability to reduce Aβ40 using a commercial Aβ40 ELISA kit (BioSource). SY5Y-BACEGFP-SEAPAPPwt cells were grown to 100% confluence and incubated with 4 concentrations of each compound (30, 10, 3, 0.3 μM). Cell culture media was collected after 6 hours of compound incubation and diluted 3:10 in sample diluent supplied in the Aβ40 ELISA kit. Aβ ELISA was performed according to the manufacturer's protocol. […] LDN-0057228 and LDN-0069630 are small molecules with ample chemical space for modification, and are thus considered good candidates for medicinal chemistry.
as §2

[5] = tested on: SY5Y-BACEGFP-SEAPAPPwt cells; details: tagged-triazine hits, 10 μM
Protocol: Of the 147 hits selected during the primary screen, 139 were retested in a 3-point dose-response (10, 2, 0.2 μM) confirmatory screen. BACE1 assay was performed as described, and cell viability was determined by Cell Titer AQeous One cell proliferation assay (Promega). Representative data from four compounds are shown. Data points represent mean±s.d. of four determinations.
The primary screen for the nearly 3,000-compound tagged-triazine library was conducted in 96-well format by hand. Compounds were supplied in powder form in 96-well polypropylene plates. The compounds were first dissolved in DMSO to generate 10 mM stock plates, then stamped onto new polypropylene plates to make 1 mM working stock solution. For assay, 1 mM working stock solution was diluted 1:100 into cell culture media for a final concentration of 10 μM. […] Negative (DMSO) and positive (BACE inhibitor IV at 10 μM) controls were included on every screening plate in triplicate for quality control and calculation of Z′ factors.
The 144 hits from the primary screen were rescreened in triplicate at 10 μM to confirm the activity and to assess cytotoxicity.
Of the 147 hits from the primary screen, 139 were retested for 3-point dose-response at 10, 2, and 0.2 μM concentrations in quadruplicate. […] The compounds were simultaneously evaluated for cytotoxicity using the Cell Titer AQueous One cell proliferation assay (Promega). […]

[6] = tested on: Aβ40 in Lenti-APPsw infected primary cortical neurons; experiment: Aβ40 ELISA in Lenti-APPsw infected primary cortical neurons; format: cell-based, mouse; details: 24 hours
Protocol: FIG. 15A-D. LDN-0057228 reduces Aβ40 and sAPPβ in primary neurons. DIV-14 primary cortical neurons from wild-type mice were incubated for 24 hours with primary culture media containing lentivirus harboring APPsw. After infection, neurons were incubated for 48 hours with 1:1 fresh to conditioned media to allow for APP expression. Neurons were then treated with LDN-0057228 at 20 μM for 24 hours in triplicate. A) Media was collected for Aβ40 ELISA. Raw Aβ40 values were normalized to APP to control for variations in lentiviral infection efficiency. B) Cell lysates were probed with 6E10 antibody to visualize the transduced full-length APP. C) sAPPβ from neuron culture media was immunoprecipitated with sβsw antibody and probed with LN27. D) Quantification of sAPPβ, normalized to APP. Data in A) and […]) represent mean+s.d. of 3 wells. Bands from B) and C) were quantified using ImageJ software.
FIG. 16A-B. CNS-2 and LDN-0057228 reduce Aβ40 in primary neurons. DIV-14 primary cortical neurons from wild-type mice were incubated for 24 hours with primary culture media containing lentivirus harboring APPsw. After infection, neurons were incubated for 48 hours with 1:1 fresh to conditioned media to allow for APP expression. Neurons were then treated for 24 hours with the indicated compound and concentration. A) Media was collected for Aβ40 ELISA. Raw Aβ40 values were normalized to APP to control for variations in lentiviral infection efficiency. B) Cell lysates were probed with 6E10 antibody to visualize the transduced full-length APP.
Lenti-APPsw infected primary cortical neurons were selected for the initial round of physiological experiments due to the relatively large batches of wild-type primary cortical neurons that were routinely harvested in the lab, the ease of lentiviral packaging. Primary cortical neurons were harvested from wild-type P0 pups using established protocols.
The Lenti-APPsw vector was co-transfected into HEK293 T cells with ViraPower packaging mix (Invitrogen) to generate the lentivirus. Lentiviral-mediated transduction of APPsw in primary neurons was performed by adding neuron primary culture media containing the lentiviral particles to wild-type DIV-14 primary neurons (FIG. 14). After 24 hours, neurons were incubated with media for 72 hours prior to collecting for Aβ40 measurement. Two batches of virus (LV-1 and LV-2) were tested, showing that there is batch-to-batch variation in the viral titer.
Using this experimental paradigm, LDN-0057228 was tested at 20 μM concentration to confirm the sAPPβ- and Aβ-lowering activity of the compound (FIG. 15). The protocol was modified slightly to allow for 24-hour compound treatment. […]

[7] = 12 concentrations 0.1 nM to 30 μM, 96-well format (FIG. 8), read-out: cell-based IC50 (sAPPβ), 12-point dose-response
[8] = SAR study, 8 concentrations (30-0.01 μM), SY5Y-BACEGFP-SEAPAPPwt cells, read-out: IC50(sAPPβ)
[9] = 10 μM, triplicate rescreen of tagged-triazine hits

T1 sequence (P56817 46-501): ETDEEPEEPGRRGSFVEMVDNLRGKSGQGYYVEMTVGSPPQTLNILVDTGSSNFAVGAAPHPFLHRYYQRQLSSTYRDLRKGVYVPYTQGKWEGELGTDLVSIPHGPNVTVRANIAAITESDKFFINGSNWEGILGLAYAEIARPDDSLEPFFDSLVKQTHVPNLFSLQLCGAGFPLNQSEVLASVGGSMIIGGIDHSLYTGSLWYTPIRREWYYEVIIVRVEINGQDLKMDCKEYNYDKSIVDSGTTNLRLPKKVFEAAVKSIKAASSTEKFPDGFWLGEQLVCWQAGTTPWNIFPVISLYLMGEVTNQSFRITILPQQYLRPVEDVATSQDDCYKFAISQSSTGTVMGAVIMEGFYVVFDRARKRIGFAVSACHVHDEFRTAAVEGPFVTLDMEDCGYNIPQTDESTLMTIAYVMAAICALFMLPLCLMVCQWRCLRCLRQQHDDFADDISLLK

Compound: Oc1cc(-c2ccccc2)nn1-c1nc2ccccc2[nH]1 [LDN-0089308]
- IC50 [1, 7]: 3.05 µM
- dose-dependent inhibition of β-secretase [2]: exhibited a dose-dependent effect
- IC50 [2]: 2.14 µM
- maximal inhibition of the fluorescence signal in the absence of BACE1 enzyme [3]: 25%

Compound: Fc1ccc(C(OCCN2CCN(CCCc3ccccc3)CC2)c2ccc(F)cc2)cc1 [GBR 12909, reference compound]
- IC50 [1, 8]: 34.6 µM
- IC50 [4]: 14.5 µM

Compound: COc1ccccc1C(=O)Nc1nc2ccccc2n1CCOc1ccccc1 [LDN-0091841]
- IC50 [1, 7]: 2.61 µM
- dose-dependent inhibition of β-secretase [2]: exhibited a dose-dependent effect
- IC50 [2]: 5.15 µM
- maximal inhibition of the fluorescence signal in the absence of BACE1 enzyme [3]: 25%

Compound: CNC[C@@H]1CCCN1CCOC(c1ccc(F)cc1)c1ccc(F)cc1 [CNS-3]
- IC50 [1, 8]: 11.5 µM
- IC50 [4]: 11.5 µM

Compound: NCCOCCOCCNc1nc(N2CCCC2)nc(N2CCN(c3ccc([N+](=O)[O-])cc3)CC2)n1 [TG-CD-D7]
- inhibition of sAPPβ [1, 9]: 43%
- effect on cell viability [5]: did not affect cell viability

Compound: CS(=O)(=O)c1nnnn1-c1ccccc1Cl [LDN-0069630]
- dose-dependent decrease in Aβ40 ([4]; 4 concentrations (30, 10, 3, 0.3 μM), 6 hours): caused a dose-dependent decrease in Aβ40
- reduction in Aβ40 ([6]; 10 μM): 15%
- reduction in Aβ40 ([6]; 15 μM): 40%

Compound: NCCOCCOCCNC(=O)c1ccc(CNc2nc(NCC3CCCCC3)nc(N3CCCCC3)n2)cc1 [AM-D-E4]
- increase in sAPPβ [1, 9]: 36%
- effect on cell viability [5]: did not affect cell viability
